The values that follow come from patent US20240368157A1, “FORMS AND COMPOSITIONS OF A JAK2 INHIBITOR” (Ajax Therapeutics, Inc., priority 2023, published 2024).

Data set [1] is described as follows: Caco2 Permeability Assay. The note with it: human, Caco-2, pH 7.4; for Papp A→B at 2 h, 5 μM: apical to basolateral; for efflux ratio at 2 h, 5 μM: read-out: Efflux Ratio (ER). Format: in vitro ADME. As for the experimental part:
Preparation of Caco-2 Cells: 50 μL and 25 mL of cell culture medium are added to each well of a Transwell® insert and reservoir, respectively. Then, the HTS Transwell® plates are incubated at 37° C., 5% CO2 for 1 hour before cell seeding. Caco-2 cell cells are diluted to 6.86×10^5 cells/mL with culture medium, and 50 μL of cell suspension are dispensed into the filter well of the 96-well HTS Transwell® plate. Cells are cultivated for 14-18 days in a cell culture incubator at 37° C., 5% CO2, 95% relative humidity. Cell culture medium is replaced every other day, beginning no later than 24 hours after initial plating.
Preparation of Stock Solutions: 10 mM stock solutions of test compounds arc prepared in DMSO. The stock solutions of positive controls are prepared in DMSO at the concentration of 10 mM. Digoxin and propranolol are used as control compounds in this assay.
Assessment of Cell Monolayer Integrity: Medium is removed from the reservoir and each Transwell® insert and is replaced with prewarmed fresh culture medium. Transepithelial electrical resistance (TEER) across the monolayer is measured using Millicell Epithelial Volt-Ohm measuring system (Millipore, USA). The Plate is returned to the incubator once the measurement is done. The TEER value is calculated according to the following equation: TEER measurement (ohms)×Area of membrane (cm^2)=TEER value (ohm·cm^2). A TEER value greater than 230 ohm·cm^2 indicates a well-qualified Caco-2 monolayer.
Assay Procedure: The Caco-2 plate is removed from the incubator and washed twice with pre-warmed HBSS (10 mM HEPES, pH 7.4), and then incubated at 37° C. for 30 minutes. The stock solutions of control compounds are diluted in DMSO to get 1 mM solutions and then diluted with HBSS (10 mM HEPES, pH 7.4) to get 5 μM working solutions. The stock solutions of the test compounds are diluted in DMSO to get 1 mM solutions and then diluted with HBSS (10 mM HEPES and 4% BSA, pH 7.4) to get 5 μM working solutions. The final concentration of DMSO in the incubation system is 0.5%. To determine the rate of drug transport in the apical to basolateral direction. 75 μL of 5 μM working solutions of test compounds are added to the Transwell® insert (apical compartment) and the wells in the receiver plate (basolateral compartment) are filled with 235 μL of HBSS (10 mM HEPES and 4% BSA, pH 7.4). To determine the rate of drug transport in the basolateral to apical direction, 235 μL of 5 μM working solutions of test compounds are added to the receiver plate wells (basolateral compartment) and then the Transwell® inserts (apical compartment) are filled with 75 μL of HBSS (10 mM HEPES and 4% BSA, pH 7.4). […]
A general note: Caco-2 monolayers are a common model of the intestinal barrier.

The nature of data set [2]: Interconversion slurry experiments. The note with it: slurry EtOH:H2O (90:10), 65° C.; material with small peak at ˜8.0 °2θ.
Description: Mixtures of Form H and Form I with Form B were utilized in these interconversion slurry experiments. […] The interconversion slurries were performed at ambient and elevated (65° C.) temperatures in various solvents and solvent mixtures.
The target in data set [3] is T1, JAK2 (JH1domain-catalytic, Y1007F, Y1008F) kinase (Homo sapiens, UniProt O60674, Y1007F/Y1008F).
T1 construct: JAK2 (JH1domain-catalytic, Y1007F, Y1008F) kinase was expressed as N-terminal fusion; made in house; host or cells: transiently transfected HEK293 cells
Description: JAK2 Binding Assay. As for the experimental part: JAK2 (JH1domain-catalytic, Y1007F, Y1008F) kinase was expressed as N-terminal fusion to the DNA binding domain of NFkB in transiently transfected HEK293 cells and subsequently tagged with DNA for qPCR detection. Streptavidin-coated magnetic beads were treated with biotinylated small molecule ligands for 30 minutes at room temperature to generate affinity resins for kinase assays. The liganded beads were blocked with excess biotin and washed with blocking buffer (SeaBlock (Pierce), 1% BSA, 0.05% Tween 20, 1 mmol/L DTT) to remove unbound ligand and to reduce nonspecific phage binding. Binding reactions were assembled by combining kinases, liganded affinity beads, and test compounds in 1× binding buffer (1×PBS, 0.05% Tween 20, 0.1% BSA, 1 mmol/L DTT). Test compound was prepared as 111× stocks in 100% DMSO and directly diluted into the assay wells. All reactions were performed in polypropylene 384-well plates in a final volume of 0.02 mL. The assay plates were incubated at room temperature with shaking for 1 hour and the affinity beads were washed with wash buffer (1×PBS, 0.05% Tween 20). The beads were then re-suspended in elution buffer (1×PBS, 0.05% Tween 20, 0.5 μmol/L non-biotinylated affinity ligand) and incubated at room temperature with shaking for 30 minutes. The kinase concentration in the eluate was measured by qPCR.

T1 sequence (O60674 849-1124 Y1007F/Y1008F limits assumed): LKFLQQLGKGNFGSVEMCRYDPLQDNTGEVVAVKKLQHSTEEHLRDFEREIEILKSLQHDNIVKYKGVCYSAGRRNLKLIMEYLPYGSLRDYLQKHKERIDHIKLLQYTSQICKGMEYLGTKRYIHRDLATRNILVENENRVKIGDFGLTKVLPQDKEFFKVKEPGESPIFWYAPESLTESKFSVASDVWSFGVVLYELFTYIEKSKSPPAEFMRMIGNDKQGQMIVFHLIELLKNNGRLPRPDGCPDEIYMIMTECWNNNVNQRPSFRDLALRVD

On to `CN(C)C(=O)Nc1cc(Oc2cnc3nc(Nc4cc(C(F)(F)F)cn(C)c4=O)n(C)c3c2C#N)ccn1` [Compound 1, 3-(4-((7-cyano-1-methyl-2-((1-methyl-2-oxo-5-(trifluoromethyl)-1,2-dihydropyridin-3-yl)amino)-1H-imidazo[4,5-b]pyridin-6-yl)oxy)pyridin-2-yl)-1,1-dimethylurea], for which, in data set [1], the apical-to-basolateral permeability (Papp A→B) at 2 h, 5 μM stood at 7 ×10⁻⁶ cm/s and the efflux ratio at 2 h, 5 μM was in the range of 2 to 5. In data set [2], the “degradation by HPLC analysis” value is reported as “small amount of degradation”. This molecule also had a Kd in data set [3] of less than 10 nM.

`CCN1CCN(Cc2ccc(Nc3nc4ccc(Oc5ccnc(NC(C)=O)c5)cc4n3C)cc2C(F)(F)F)CC1` [Compound R-1, reference compound]: in data set [1], the apparent permeability from apical to basolateral (Papp A→B) at 2 h, 5 μM was found to be 0.4 ×10⁻⁶ cm/s and the efflux ratio at 2 h, 5 μM lay within 10 to 30.

A word on the Papp A→B: it is the apparent permeability from the apical to the basolateral side of a cell layer. Read a low Papp A→B as poor permeation. Broadly, the Kd is the free concentration of one partner at which half of the binding sites on the other are occupied at equilibrium, for simple one-to-one binding.
